The values below come from patent US20250099622A1, “COMPOSITIONS AND METHODS FOR EXPRESSING THERAPEUTICS” (priority 2022, published 2025).

The test system of data set [1] is retinal ganglion cells (RGC). Description: NMDA excitotoxicity mouse model: RGC count by retinal Flatmount. Format: in vivo, C57BL/6).
Experimental: This study was for evaluating the effect of adeno-associated viral (AAV) vectors on retinal ganglion cell protection following damage caused via N-methyl-D-aspartate (NMDA) administration in the mouse. […] Groups 7 and 8 were added to test a higher concentration of MK-801. […] This study was conducted in wild type mice (Mus musculus, C57BL/6).
300 μL of the 5 mM NMDA stock was combined with 300 μL of sterile PBS and 1 μL as injected on Day 0 for a final concentration of 2.5 mM NMDA.
300 μL of the 5 mM NMDA stock as combined with 300 μL of sterile-filtered MK-801 and 1 μL was injected on Day 0 for a final concentration of 2.5 mM NMDA/100 μM MK-801.
300 μL of the 5 mM NMDA stock was combined with 300 μL of sterile PBS and 1 μL was injected on Day 0 for a final concentration of 2.5 mM NMDA.
On Day −28 or Day 0 based on the experimental design, mice were given buprenorphine 0.01-0.05 mg/kg subcutaneously (SQ). Animals were then tranquilized for the intravitreal injections with ketamine/xylazine or inhaled isoflurane and one drop of 0.5% proparacaine HCl was applied to both eyes. The conjunctiva was gently grasped with Dumont #4 forceps, and the injection was made using a 33 G needle and a Hamilton syringe. After dispensing the syringe contents, the syringe needle was slowly withdrawn. Following the injection procedure, 1 drop of Ofloxacin ophthalmic solution was applied topically to the ocular surface with eye lube.
Eyes were enucleated and immediately fixed in 4% paraformaldehyde in phosphate-buffered saline (PBS) and stored overnight at 4° C. The following day, the eyes were transferred to cold immunocytochemistry (ICC) buffer (PBS containing 0.5% BSA and 0.2% Tween 20) until processing. Using a dissecting microscope, the eye was carefully trimmed of extraneous tissue at the limbus and, using fine curved scissors, the anterior chamber was removed. Retinas in the eye cup were rinsed with cold ICC buffer. Eye cups were placed in cold ICC buffer containing 1/100 rat anti-CNP36 (Groups 3-6 only; resuspended at 0.5 mg/mL in PBS) for 3 hours at 4° C. Eye cups were then washed extensively and stained with 1/200 donkey anti-rat Cy3 and 1/1,000 DAPI for 2-3 hours at 4° C. Groups 1 and 2 were stained with 1/500 TUJ-1 and 1/1000 DAPI, while Groups 7 and 8 were incubated with 1/1,000 DAPI alone. Eye cups were washed extensively but gently with cold ICC buffer. Using fine curved scissors and an eyelash knife, the retina was detached from the optic nerve head and removed from the RPE/choroid. Radial cuts were then made toward the center and retinas were flat mounted, covered, and sealed. 2D fluorescent microscopy images were acquired using an Olympus Bx63 upright fluorescent microscope. […] Images at 20× were acquired in 4 quadrants and a central 248.1×325.7 μm region was analyzed for RGC counts using Olympus cellSens and ImageJ software.
Groups 1 and 2 were stained with DAPI and TUJ-1 and images were captured at 20× (FIG. 10A). RGCs were counted in four quadrants, and cells/mm2 were averaged across each group.
Groups 3-8 were stained for DAPI and four images were captured for each retina at 20× approximately 600 μm from the optic nerve head. RGCs were counted in a central 248.1×325.7 μm region and cells/mm2 were averaged over each group (FIG. 10C).
The statistical analyses were performed on the Group 3-8 RGC data (one-way ANOVA followed by multiple comparisons using the Dunnett statistical hypothesis comparison).
Data set [2] has as its system TUJ-1+ and cone arrestin+ cells. Kind of data set: NMDA excitotoxicity mouse model: immunohistochemistry (TUJ-1, cone arrestin). Format: in vivo, C57BL/6). The note with it: Groups 1 and 2, Day 7, qualitative. The protocol: All eyes designated for immunohistochemistry (IHC) were enucleated, the approximate site of injection was marked, and eyes were fixed at 4° C. in 4% paraformaldehyde in separately labeled vials overnight. Eyes were then transferred into 0.1M phosphate buffer (PB), brought through a sequential sucrose gradient (10-30%, 1 hour each) followed by embedding in OCT medium and freezing on dry ice.
Negative controls were performed for the staining cocktail by utilizing only the secondary antibody. Five slides spanning the retina for each eye were stained. Two pictures per retinal cross-section—one at or near the injection site and one from a central region—were taken using an Olympus Bx63 upright fluorescent microscope and cellSens software. […] All groups had clear cone arrestin staining with some TUJ-1+ cells observed (FIG. 12B). No further staining or analysis was performed on cross-sections as the staining was not an informative endpoint.

Data set [3] relates to retinal ganglion cells (RGC). Description: NMDA excitotoxicity mouse model: RGC count by H&E histopathology. Format: in vivo, C57BL/6). The note with it: for RGC #/HPF (400X): H&E, single animals, Group 2. The procedure:
This study was for evaluating the effect of adeno-associated viral (AAV) vectors on retinal ganglion cell protection following damage caused via N-methyl-D-aspartate (NMDA) administration in the mouse. Injection volumes and treatment options can be found in Table 18. Groups 7 and 8 were added to test a higher concentration of MK-801. The tissues for bioanalysis were snap frozen whole instead of being homogenized. The methods of adding IBMX to whole blood were established and clarified. This study was conducted in wild type mice (Mus musculus, C57BL/6).
Following euthanasia, eyes of elected animals were processed for histological or immunological examination. The ODs of animal 519 (Group 5) and 629 (Group 6) were noted to have a very small lens, blood in the retina, and the eye was filled with a gel-like substance. […] For Groups 1 and 2, immediately following euthanasia, selected eyes were collected into 10% neutral buffered formalin. The eyes were placed in 70% ethanol the following day. The eyes were then processed to paraffin blocks for sectioning. Sagittal sections of each eye (5 μm thickness) were prepared for all animals. At least 3 slides containing a ribbon of approximately 5 sections were collected sequentially. The optic nerve was included in the sectioning. The slides were stained for hematoxylin and eosin (H&E) and examined using light microscopy. Retinal ganglion cells (RGC) were counted (Table 19 and FIG. 9C).

Data set [4] relates to retinal ganglion cells (RGC). Kind of data set: Rat pONT model: RGC survival, RBPMS+ RGCs in retinal whole mounts. Format: in vivo, rat (Dark Agouti).
Data set [5] concerns intraocular pressure (IOP). Description: Rat partial optic nerve transection (pONT) model: intraocular pressure (Tonolab tonometry). Format: in vivo, rat (Dark Agouti). The procedure:
(§1) Using an experimental rat model of partial optic nerve transection (pONT), effects of Adeno-associated virus (AAV) CNP peptide (AAV-P) and protein Fc fusion (AAV-FP) on: retinal ganglion cell (RGC) apoptosis/stress in vivo was assessed using detection of apoptosing retinal cells (DARC) imaging; intraocular inflammation in vivo using Optical Coherence Tomography (OCT) imaging; intraocular pressure (IOP) in vivo using Tonolab tonometry; RGC survival histologically using immunohistochemistry on retinal whole mounts; and retinal microglial activity histologically using immunohistochemistry on retinal whole mounts.
(§2) In total, seventy-two male Dark Agouti (DA) rats aged 8-10 weeks were used in this study. The seventy-two animals were randomly divided into 3 categories.
(§3) Intravitreal injections (IVT, 4 μL) were given under general anesthesia (GA), according to the categories, and administered to the left eye (pONT eye) only once using a 34-gauge Hamilton needle at day 0 after BL imaging. pONT was performed at week 3 in Categories 1 and 2. In Category 3, pONT was performed soon after baseline imaging.
Partial optic nerve transection (pONT) surgery was performed under GA at week 3 in categories 1 and 2. […]
IOP. […] Ten IOP readings were collected from each eye of each animal at each time point.
IOP measurements were performed three times a week at weeks 1, 2, and 4. DARC spots on in vivo images were automatically counted by an algorithm developed and validated in the Cordeiro lab. […] RBPMS^+ RGCs in retinal whole mounts were automatically counted and analyzed by a recently developed and validated algorithm in the Cordeiro lab. […] The morphology of microglia in retinal whole mounts was automatically analyzed by a recently developed and validated machine learning approach in the Cordeiro lab.
IOP analysis in the both Fc4-CNP36 (FP) and AAV treatment. […] The IOP data was analyzed by subtracting OD (the right eye) from OS (the left eye) in each animal at each time point. […] FIG. 16A illustrates animal IOP monitored during the course of the study. […]

Data set [6] concerns NIH3T3 cells (cGMP secreted). Description: EC50 for CNP-Fc constructs, cGMP ELISA of NIH3T3 supernatant. Format: cell-based. Particulars: NIH3T3, 30 minutes, 1.8 mM IBMX, cGMP secreted by the cells; FIG. 25B. The procedure: EC50 for CNP-Fc described herein were measured by ELISA. 2.5E+05 NIH3T3 cells/well were plated. […] After 30 minutes, supernatant was collected for cGMP determined via ELISA. FIG. 25A illustrates a standard curve of cGMP.

The subject of data set [7] is apoptosing retinal cells (RGC apoptosis). Kind of data set: Rat pONT model: DARC imaging of RGC apoptosis. It is filed as in vivo, rat (Dark Agouti). The protocol:
as §1, §2, §3
Partial optic nerve transection (pONT) surgery was performed under GA at week 3 in categories 1 and 2. In category 3, pONT surgery was performed on day 0 after BL imaging. […]
DARC/OCT. under GA, DARC/OCT imaging was conducted at baseline (BL), weeks 1, 2, and 4 in categories 1 and 2. pONT was performed at week 3. […] Briefly, fluorescently labelled annexin 776 (6 mg/mL, 40 μL) was […] administrated 2 hours before DARC imaging and then assessed with a confocal scanning laser ophthalmoscope (cSLO). […]
IOP measurements were performed three times a week at weeks 1, 2, and 4. DARC spots on in vivo images were automatically counted by an algorithm developed and validated in the Cordeiro lab. […] RBPMS^+ RGCs in retinal whole mounts were automatically counted and analyzed by a recently developed and validated algorithm in the Cordeiro lab. […] The morphology of microglia in retinal whole mounts was automatically analyzed by a recently developed and validated machine learning approach in the Cordeiro lab. […]

A short description of data set [8]: Rat pONT model: ELISA of Fc4-CNP36 / CNP36 in ocular homogenate and serum. Particulars: after IVT of FP protein, terminal samples; FIG. 18.
Experimental: Make a mixture of RIPA and the protease inhibitor was prepared by adding one tablet of protease inhibitor in 10 mL of RIPA buffer. Ocular tissue was measured for the amount of buffer needed. For every 1 mg of tissue, 10 μL of buffer was added. The tube containing the tissue was sonicated for 20 seconds on ice followed by 20 seconds of rest on ice. The sonication and chilling on ice was repeated two more times making 3 cycles in total.
After complete homogenization, the tubes were placed on an orbital shaker in cold room for two hours. After two hours, the tubes were centrifuged for five minutes at 13,000 rpm. The supernatants were collected and stored store at −80° C.
Animals were culled at week 4 in categories 1 and 2, and at week 1 in category 3. Before culling, a blood sample (at least 2 mL) was collected by cardiac puncture under the terminal procedure, centrifuged to collect serum, and stored at −80° C.
The remaining three blocks (blocks 4-6) of animals from each category (36 rats in total) were used for protein analysis. After culling, both eyes from each animal were enucleated and snap-frozen with liquid nitrogen, cryogenically homogenized with mortar and pestle and stored at −80° C. until protein analysis.
A serial dilution of CNP-Fc can be used in the assay. The detection range of CNP-Fc concentration in this assay can be from 0.78 to 50 ng/mL. […]

Entries after “also recorded” stand apart in the source; their conditions may differ.

With `C[C@]12N[C@H](Cc3ccccc31)c1ccccc12` [MK-801], the “RGC protection by positive control” value in data set [1] (100 μM MK-801) is reported as “fully rescued the NMDA RGC loss phenotype”. Besides, the “RGC count, retinal Flatmount (Groups 1 and 2)” value in data set [1] (Group 2 ODs, NMDA + MK-801 co-injection IVT Day 0, DAPI and TUJ-1) was 9,000±500 cells/mm2. Moreover, the “RGC count, retinal Flatmount (Groups 3-8)” value in data set [1] (Group 8 ODs, NMDA + 100 μM MK-801 co-injection IVT Day 0, DAPI) was 12,000±300 cells/mm2. Also, the “P, RGC count NMDA+MK-801-treated (Group 8) versus NMDA-treated (Group 7 OD) eyes” value in data set [1] (one-way ANOVA, Dunnett, MK-801 100 μM) is given as < 0.0001. For the same compound, the “number of TUJ-1+ and cone arrestin+ cells between groups” value in data set [2] is listed as “did not appear to be a difference”. Also, in data set [3] (H&E histopathology, ODs and OSs), the “mean RGC count, Group 2 versus Group 1” value was “no differences in the mean RGC count”. The “RGC #/HPF (400X)” value is “RGC #/HPF (400X) = 37; also recorded: RGC #/HPF (400X) = 35; also recorded: RGC #/HPF (400X) = 55; also recorded: RGC #/HPF (400X) = 38” in data set [3] (L eye (OS, control eye, no NMDA)) and “RGC #/HPF (400X) = 41; also recorded: RGC #/HPF (400X) = 31” in data set [3] (R eye (OD, experimental eye: NMDA + MK-801)).

“AMI263: purified fusion protein Fc4-(G4S)4-CNP36 (IgG4 Fc), SEQ ID NO: 135”: the “RGC counts versus FP dose” value in data set [4] (FP 2, 20, 80 μg/eye IVT, FIG. 17B) is recorded as “increased with dose increase”. Also, the “RGC counts in eyes after treatment” value in data set [4] (summary) is reported as “RGC counts increased”. In addition, the “effect on IOP” value in data set [5] (IVT 2, 20 and 80 μg/eye of affinity purified FP) is reported as “significant effect on IOP reduction”. Also, the “dose at which IOP reduction reached maximal” value in data set [5] (IVT, range 2-80 μg/eye) stood at 2 μg/eye. Also, the “p, reduction in the IOP” value in data set [5] (all FP concentrations (2, 20, 80 μg/eye IVT), Day 1 compared to baseline (Day 0) or Day 7 after pONT) is < 0.01. For the same compound, in data set [6], the “EC50 values (rank order)” value was “CNP-22 ≡Fc4-CNP36>Aflibercept-Fc4-CNP36>Fc1-CNP36>>Fc4-CNP22”. Besides, the “p, DARC count FP (High) versus AAV-Negative” value in data set [7] (80 μg/eye IVT) is given as 0.0078. Also, the “DARC count, FP conditions” value in data set [7] (FP 2, 20, 80 μg/eye IVT, baseline subtracted, listed as FP) is “lowest DARC count; also recorded: dose-dependent effect”. For the same compound, in data set [7] (FP (H) = 80 μg/eye IVT, listed as FP), the “DARC count at highest FP dose” value is reported as “complete inhibition of DARC formation; also recorded: significant reduction compared to Sham control”. Further, in data set [8], the “FP4-CNP36 levels in treated eyes (OS)” value is reported as “correlated to the dose amount”.
